In PubChem BioAssay (NCI):
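Five compound concentrations were applied to cells in 96-well plates for 48 hours; endpoints were derived by simple linear interpolation of the resulting dose-response curve. The concentration for full growth arrest is given as TGI.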

Assays:
Experiment in all cases: NCI-60 cell line screen, 48 h
[1] = tested on: BT-549 breast
[2] = tested on: CCRF-CEM leukemia
[3] = tested on: IGROV1 ovarian
[4] = tested on: OVCAR-4 ovarian
[5] = tested on: RPMI-8226 leukemia
[6] = tested on: RXF 393 renal
[7] = tested on: SK-MEL-2 melanoma
[8] = tested on: SNB-19 CNS
[9] = tested on: TK-10 renal
[10] = tested on: SF-539 CNS

SMILES: CC[C@@]1(O)C(=O)OCc2c1cc1n(c2=O)Cc2c-1nc1ccccc1c2/C=N\NC(=O)C(N)CC(C)C (some centres not stated)
- TGI [1]: > 100 µM
- TGI [2]: 0.629 µM
- TGI [3]: > 22 µM
- TGI [4]: > 100 µM
- TGI [5]: 3.71 µM
- TGI [6]: 0.154 µM
- TGI [7]: 2.99 µM
- TGI [8]: > 100 µM
- TGI [9]: > 100 µM

SMILES: COC(=O)c1c2c(cc3c1CC1(Cc4ccccc4C1=O)C3)CCC2 (configuration not stated)
- TGI [2]: > 100 µM
- TGI [3]: > 100 µM
- TGI [4]: > 100 µM
- TGI [5]: 99.8 µM
- TGI [6]: 98.4 µM
- TGI [10]: > 100 µM
- TGI [7]: > 100 µM
- TGI [8]: > 100 µM
- TGI [9]: > 100 µM

SMILES: COC(=O)N1CC2(CO)C3CC=C(C(=O)Nc4ccccc4Br)C2C1C3Br (configuration not stated)
- TGI [2]: > 50 µM
- TGI [3]: > 50 µM
- TGI [4]: > 50 µM
- TGI [5]: > 50 µM
- TGI [6]: > 50 µM
- TGI [10]: > 50 µM
- TGI [7]: > 50 µM
- TGI [8]: > 50 µM
- TGI [9]: > 50 µM

SMILES: C=C1C(=O)OC2/C=C(\C)C(OC(C)=O)C3OC3C(C)(O)CC(OC(=O)/C(C)=C/C)C12 (configuration not stated)
- TGI [2]: 9.45 µM
- TGI [3]: 35.7 µM
- TGI [4]: 62.2 µM
- TGI [5]: 28.2 µM
- TGI [6]: 19.3 µM
- TGI [10]: 14.2 µM
- TGI [7]: 20.6 µM
- TGI [8]: 33.7 µM
- TGI [9]: 24.6 µM

SMILES: CC[n+]1cnc(N)c2c(-c3ccc(Cl)cc3)cn(-c3ccc(C)cc3)c21
- TGI [2]: 22.7 µM
- TGI [3]: 26.5 µM
- TGI [4]: 15.6 µM
- TGI [6]: 18.2 µM
- TGI [10]: 28.5 µM
- TGI [7]: 36 µM
- TGI [8]: 28.8 µM
- TGI [9]: 31.6 µM

SMILES: Nc1nc2c(=O)c3ccccc3sc2s1
- TGI [1]: > 100 µM
- TGI [2]: > 100 µM
- TGI [3]: > 100 µM
- TGI [5]: > 100 µM
- TGI [6]: > 100 µM
- TGI [10]: 48.2 µM
- TGI [7]: > 100 µM
- TGI [8]: > 100 µM
- TGI [9]: > 100 µM

SMILES: C1=C\SS/C=C\SS/C=C\SS/C=C\SS/1
- TGI [1]: > 100 µM
- TGI [2]: 61.9 µM
- TGI [3]: > 100 µM
- TGI [4]: > 100 µM
- TGI [5]: > 100 µM
- TGI [6]: > 100 µM
- TGI [7]: > 100 µM
- TGI [8]: > 100 µM
- TGI [9]: > 100 µM

SMILES: COc1cccc2c1OC1c3ccccc3OCC1C2 (configuration not stated)
- TGI [1]: > 100 µM
- TGI [2]: > 100 µM
- TGI [3]: > 100 µM
- TGI [5]: > 100 µM
- TGI [10]: > 100 µM
- TGI [7]: > 100 µM
- TGI [9]: > 100 µM

SMILES: CCOC(=O)c1cnc(-n2[nH]c(C)c(CCO)c2=O)[nH]c1=O
- TGI [2]: > 100 µM
- TGI [3]: > 100 µM
- TGI [4]: > 100 µM
- TGI [5]: > 100 µM
- TGI [6]: > 100 µM
- TGI [10]: > 100 µM
- TGI [7]: > 100 µM
- TGI [8]: > 100 µM
- TGI [9]: > 100 µM

SMILES: Nc1nc(N)c2ncn(CC3CCC(CO)C3)c2n1 (configuration not stated)
- TGI [2]: > 100 µM
- TGI [4]: > 100 µM
- TGI [5]: > 100 µM
- TGI [6]: > 100 µM
- TGI [10]: > 100 µM
- TGI [7]: > 100 µM
- TGI [8]: > 100 µM
- TGI [9]: > 100 µM

SMILES: C=CCNC(=S)Nc1sc2c(c1C(=O)OCC)CC(C)CC2 (configuration not stated)
- TGI [1]: > 100 µM
- TGI [3]: > 100 µM
- TGI [4]: > 100 µM
- TGI [5]: 68.6 µM
- TGI [6]: 83.9 µM
- TGI [7]: 48.4 µM
- TGI [8]: 62.5 µM
- TGI [9]: 63.7 µM

SMILES: O=C1c2ccccc2C(=O)N1n1c(Cc2ccccc2)n[nH]c1=O
- TGI [1]: > 100 µM
- TGI [2]: > 100 µM
- TGI [3]: > 100 µM
- TGI [4]: > 100 µM
- TGI [10]: > 100 µM
- TGI [7]: > 100 µM
- TGI [8]: > 100 µM
- TGI [9]: > 100 µM
